In general, Ki refers to a dissociation constant, usually derived from enzyme kinetics or from competition with a known ligand. Lower therefore signals higher affinity. In general, IC50 refers to the midpoint of a concentration-inhibition curve. Low values mean higher potency, high ones lower potency. Usually CC50 stands for the concentration at which the toxic effect on the cells reaches its halfway point. A higher CC50 goes with better tolerance by the cells.

These results are taken from ChEMBL document CHEMBL1137169, “P4 cap modified tetrapeptidyl alpha-ketoamides as potent HCV NS3 protease inhibitors” (Bioorg Med Chem Lett, 2004).

For one experiment, the target named is NS3 (Hepatitis C virus, UniProt A3EZJ3). The experiment can be described thus: Inhibitory potency against HCV NS3 protease. Details: species or system Hepacivirus hominis.
NS3, sequence (A3EZJ3 whole entry): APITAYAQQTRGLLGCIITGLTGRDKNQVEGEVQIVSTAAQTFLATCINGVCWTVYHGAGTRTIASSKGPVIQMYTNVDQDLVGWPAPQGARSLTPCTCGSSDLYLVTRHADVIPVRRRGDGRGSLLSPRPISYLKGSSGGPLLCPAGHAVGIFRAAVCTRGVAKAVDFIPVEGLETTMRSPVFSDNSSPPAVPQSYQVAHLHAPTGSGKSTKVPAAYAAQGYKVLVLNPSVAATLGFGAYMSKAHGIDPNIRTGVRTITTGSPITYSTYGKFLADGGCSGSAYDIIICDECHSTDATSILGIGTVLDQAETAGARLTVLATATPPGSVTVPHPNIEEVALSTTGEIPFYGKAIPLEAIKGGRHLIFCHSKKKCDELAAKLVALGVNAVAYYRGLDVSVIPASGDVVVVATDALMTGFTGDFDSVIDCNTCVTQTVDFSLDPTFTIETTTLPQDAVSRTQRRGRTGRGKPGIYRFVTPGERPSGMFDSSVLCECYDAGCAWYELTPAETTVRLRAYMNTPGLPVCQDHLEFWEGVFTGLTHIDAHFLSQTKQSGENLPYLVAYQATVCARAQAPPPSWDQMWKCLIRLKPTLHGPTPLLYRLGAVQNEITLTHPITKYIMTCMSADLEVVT
Details: not given
Regarding `CCCC(NC(=O)[C@@H]1C2CCCC2CN1C(=O)[C@@H](NC(=O)[C@@H](NC(=O)CCCCc1nnn[nH]1)C(C)C)C(C)C)C(=O)C(=O)N[C@@H](C)c1ccccc1` (stereo in doubt; 12), the Ki was 31 nM.

With `CCCC(NC(=O)[C@@H]1CC(OC(=O)N2CCc3ccccc3C2)CN1C(=O)[C@@H](NC(=O)[C@@H](NC(=O)CCCCC(=O)NC)C(C)C)C(C)C)C(=O)C(=O)NC1CC1` (some centres undefined), the affinity, expressed as Ki, was 193 nM.

The molecule `CCC[C@H](NC(=O)[C@@H]1C2CCCC2CN1C(=O)[C@@H](NC(=O)[C@@H](NC(=O)CCCCc1nn[nH]n1)C(C)C)C(C)C)C(=O)C(=O)NC(=O)CN` (some centres undefined) yielded a Ki of 82 nM.

Molecule `CCC[C@H](NC(=O)[C@@H]1C2CCCC2CN1C(=O)[C@@H](NC(=O)[C@@H](NC(=O)Cc1nn[nH]n1)[C@@H](C)CC)C(C)(C)C)C(=O)C(=O)NC1CC1` (some centres undefined) returned a Ki of 3110 nM.

The molecule `CCC[C@H](NC(=O)[C@@H]1C2CCCC2CN1C(=O)[C@@H](NC(=O)[C@@H](NC(=O)c1cnccn1)C(C)C)C(C)C)C(=O)C(=O)NC1CC1` (some centres undefined) returned an inhibition constant Ki of 123 nM.

The molecule `CCCC(NC(=O)[C@@H]1CC(OC(=O)N2CCc3ccccc3C2)CN1C(=O)[C@@H](NC(=O)[C@@H](NC(=O)CCCCC(=O)OC)C(C)C)C(C)C)C(=O)C(=O)NC1CC1` (some centres undefined) had an inhibitory constant (Ki) of 271 nM.

Take `CCC[C@H](NC(=O)[C@@H]1C2CCCC2CN1C(=O)[C@@H](NC(=O)[C@@H](NC(=O)Cc1nn[nH]n1)C(C)C)C(C)(C)C)C(=O)C(=O)NC1CC1` (some centres undefined): the affinity, expressed as Ki, was 808 nM.

In the case of `CCCC(NC(=O)[C@@H]1C2CCCC2CN1C(=O)[C@@H](NC(=O)[C@@H](NC(=O)Cc1nn[nH]n1)C1CCCCC1)C(C)(C)C)C(=O)C(=O)NC1CC1` (some centres undefined), the inhibition constant (Ki) amounted to 30 nM.

Turning to `CCCC(NC(=O)[C@@H]1CC(OC(=O)N2CCc3ccccc3C2)CN1C(=O)[C@@H](NC(=O)[C@@H](NC(=O)CCCCC(=O)O)C(C)C)C(C)C)C(=O)C(=O)NC1CC1` (some centres undefined), the Ki amounted to 65 nM.

Regarding `CCCC(NC(=O)[C@@H]1C2CCCC2CN1C(=O)[C@@H](NC(=O)[C@@H](NC(=O)CCCCc1nnn[nH]1)C(C)C)C(C)C)C(=O)C(=O)N[C@@H](C)c1ccncc1` (some centres undefined), the inhibition constant (Ki) amounted to 112 nM.

The molecule `CCCC(NC(=O)[C@@H]1C2CCCC2CN1C(=O)[C@@H](NC(=O)[C@@H](NC(=O)CCCCc1nnn[nH]1)C(C)C)C(C)C)C(=O)C(=O)Nc1ccccc1` (some centres undefined) returned an inhibition constant Ki of 22 nM.

`CCC(C=O)NC(=O)[C@@H]1CC(OC(=O)c2ccc3ccccc3c2)CN1C(=O)[C@@H](NC(=O)[C@@H](NC(=O)CCCCC(=O)O)C(C)C)C(C)C` (some centres undefined) registered a Ki of 110 nM.

The molecule `CCCC(NC(=O)[C@@H]1C2CCCC2CN1C(=O)[C@@H](NC(=O)[C@@H](NC(=O)CCCCc1nnn[nH]1)C(C)C)C(C)C)C(=O)C(=O)NC(C)CC` (some centres undefined) returned a Ki of 248 nM.

In turn, `CCC[C@H](NC(=O)[C@@H]1C2CCCC2CN1C(=O)[C@@H](NC(=O)[C@@H](NC(=O)CCCCc1nn[nH]n1)C(C)C)C(C)C)C(=O)C(=O)NC1CC1` (some centres undefined) gave an inhibitory constant (Ki) of 170 nM.

For `CCCC(NC(=O)[C@@H]1C2CCCC2CN1C(=O)[C@@H](NC(=O)[C@@H](NC(=O)CCCCc1nnn[nH]1)C(C)C)C(C)C)C(=O)C(=O)N[C@@H](C)c1ccccc1` (stereo in doubt; 13), the Ki came out at 27 nM.

A further experiment deals with T1, Neutrophil elastase (Homo sapiens) (UniProt P08246).
T1 sequence (whole entry): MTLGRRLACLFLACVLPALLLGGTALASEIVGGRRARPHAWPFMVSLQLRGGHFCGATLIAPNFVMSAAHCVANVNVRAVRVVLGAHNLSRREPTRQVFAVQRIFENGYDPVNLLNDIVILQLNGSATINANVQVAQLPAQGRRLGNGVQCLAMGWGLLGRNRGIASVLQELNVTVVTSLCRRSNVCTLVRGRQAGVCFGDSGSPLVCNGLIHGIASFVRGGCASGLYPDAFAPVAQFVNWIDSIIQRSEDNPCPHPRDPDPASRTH
The experiment can be described thus: Selectivity for human neutrophil elastase.
Details: not given
Regarding `CCCC(NC(=O)[C@@H]1CC(OC(=O)N2CCc3ccccc3C2)CN1C(=O)[C@@H](NC(=O)[C@@H](NC(=O)CCCCC(=O)NC)C(C)C)C(C)C)C(=O)C(=O)NC1CC1` (some centres undefined), the Selectivity turned out to be 4.

For `CCC[C@H](NC(=O)[C@@H]1C2CCCC2CN1C(=O)[C@@H](NC(=O)[C@@H](NC(=O)CCCCc1nnn[nH]1)C(C)C)C(C)C)C(=O)C(=O)NC1CC1` (some centres undefined), the Selectivity amounted to 7.

In turn, `CCCC(NC(=O)[C@@H]1C2CCCC2CN1C(=O)[C@@H](NC(=O)[C@@H](NC(=O)CCCCc1nnn[nH]1)C(C)C)C(C)C)C(=O)C(=O)Nc1ccccc1` (some centres undefined) displayed a Selectivity of 1180.

In another experiment the test system is Cell line. Put plainly: inhibitory concentration in luciferase based replicon assay. Conditions: Homo sapiens. In kind it is functional. Background: Replicon systems follow genome replication, usually without infectious particles.
As for `CCCC(NC(=O)[C@@H]1C2CCCC2CN1C(=O)[C@@H](NC(=O)[C@@H](NC(=O)CCCCc1nnn[nH]1)C(C)C)C(C)C)C(=O)C(=O)N[C@@H](C)c1ccccc1` (stereo in doubt; 12), the IC50 was > 50 µM.

On to `CCC[C@H](NC(=O)[C@@H]1C2CCCC2CN1C(=O)[C@@H](NC(=O)[C@@H](NC(=O)Cc1nn[nH]n1)[C@@H](C)CC)C(C)(C)C)C(=O)C(=O)NC1CC1` (some centres undefined), for which the IC50 is > 50 µM.

In turn, `CCC[C@H](NC(=O)[C@@H]1C2CCCC2CN1C(=O)[C@@H](NC(=O)[C@@H](NC(=O)c1cnccn1)C(C)C)C(C)C)C(=O)C(=O)NC1CC1` (some centres undefined) showed an IC50 of 11.6 µM.

With `CCCC(NC(=O)[C@@H]1C2CCCC2CN1C(=O)[C@@H](NC(=O)[C@@H](NC(=O)Cc1nn[nH]n1)C1CCCCC1)C(C)(C)C)C(=O)C(=O)NC1CC1` (some centres undefined), the concentration for half-maximal inhibition (IC50) is > 50 µM.

On to `CCCC(NC(=O)[C@@H]1CC(OC(=O)N2CCc3ccccc3C2)CN1C(=O)[C@@H](NC(=O)[C@@H](NC(=O)CCCCC(=O)O)C(C)C)C(C)C)C(=O)C(=O)NC1CC1` (some centres undefined), for which the IC50 was > 50 µM.

As for `CCC[C@H](NC(=O)[C@@H]1C2CCCC2CN1C(=O)[C@@H](NC(=O)[C@@H](NC(=O)CCCCc1nnn[nH]1)C(C)C)C(C)C)C(=O)C(=O)NC1CC1` (some centres undefined), the IC50 is > 50 µM.

Turning to `CCCC(NC(=O)[C@@H]1C2CCCC2CN1C(=O)[C@@H](NC(=O)[C@@H](NC(=O)CCCCc1nnn[nH]1)C(C)C)C(C)C)C(=O)C(=O)NC(C)CC` (some centres undefined), the IC50 is > 50 µM.

A further experiment concerns Huh-7. Put plainly: Cytotoxic concentration against Huh-7 liver cell line. In kind it is functional. Conditions: Homo sapiens.
As to `CCCC(NC(=O)[C@@H]1C2CCCC2CN1C(=O)[C@@H](NC(=O)[C@@H](NC(=O)CCCCc1nnn[nH]1)C(C)C)C(C)C)C(=O)C(=O)N[C@@H](C)c1ccccc1` (stereo in doubt; 12), the CC50 is > 50 µM.

Turning to `CCCC(NC(=O)[C@@H]1CC(OC(=O)N2CCc3ccccc3C2)CN1C(=O)[C@@H](NC(=O)[C@@H](NC(=O)CCCCC(=O)NC)C(C)C)C(C)C)C(=O)C(=O)NC1CC1` (some centres undefined), the CC50 is > 10 µM.

For `CCC[C@H](NC(=O)[C@@H]1C2CCCC2CN1C(=O)[C@@H](NC(=O)[C@@H](NC(=O)Cc1nn[nH]n1)[C@@H](C)CC)C(C)(C)C)C(=O)C(=O)NC1CC1` (some centres undefined), the CC50 is > 50 µM.

Consider `CCC[C@H](NC(=O)[C@@H]1C2CCCC2CN1C(=O)[C@@H](NC(=O)[C@@H](NC(=O)c1cnccn1)C(C)C)C(C)C)C(=O)C(=O)NC1CC1` (some centres undefined), for which the CC50 is > 50 µM.

Turning to `CCCC(NC(=O)[C@@H]1C2CCCC2CN1C(=O)[C@@H](NC(=O)[C@@H](NC(=O)Cc1nn[nH]n1)C1CCCCC1)C(C)(C)C)C(=O)C(=O)NC1CC1` (some centres undefined), the CC50 is > 50 µM.

For `CCCC(NC(=O)[C@@H]1CC(OC(=O)N2CCc3ccccc3C2)CN1C(=O)[C@@H](NC(=O)[C@@H](NC(=O)CCCCC(=O)O)C(C)C)C(C)C)C(=O)C(=O)NC1CC1` (some centres undefined), the CC50 was > 50 µM.

With `CCC[C@H](NC(=O)[C@@H]1C2CCCC2CN1C(=O)[C@@H](NC(=O)[C@@H](NC(=O)CCCCc1nnn[nH]1)C(C)C)C(C)C)C(=O)C(=O)NC1CC1` (some centres undefined), the CC50 is > 50 µM.

As for `CCCC(NC(=O)[C@@H]1C2CCCC2CN1C(=O)[C@@H](NC(=O)[C@@H](NC(=O)CCCCc1nnn[nH]1)C(C)C)C(C)C)C(=O)C(=O)Nc1ccccc1` (some centres undefined), the 50% cytotoxic concentration (CC50) is > 10 µM.

For the molecule `CCCC(NC(=O)[C@@H]1C2CCCC2CN1C(=O)[C@@H](NC(=O)[C@@H](NC(=O)CCCCc1nnn[nH]1)C(C)C)C(C)C)C(=O)C(=O)NC(C)CC` (some centres undefined), the CC50 is > 50 µM.
